Assays:
Assay type in all cases: functional, cell-based
[1] = biological target: T1, Taste receptor type 2 member 5 (Homo sapiens) (UniProt Q9NYW4); assay: Agonist activity at human TAS2R5 expressed in HEK293T cells co-expressing Galpha15 assessed as increase in intracellular calcium level at 20 mM by Calcium-3 dye based fluorescence assay relative to control
T1 sequence (whole entry): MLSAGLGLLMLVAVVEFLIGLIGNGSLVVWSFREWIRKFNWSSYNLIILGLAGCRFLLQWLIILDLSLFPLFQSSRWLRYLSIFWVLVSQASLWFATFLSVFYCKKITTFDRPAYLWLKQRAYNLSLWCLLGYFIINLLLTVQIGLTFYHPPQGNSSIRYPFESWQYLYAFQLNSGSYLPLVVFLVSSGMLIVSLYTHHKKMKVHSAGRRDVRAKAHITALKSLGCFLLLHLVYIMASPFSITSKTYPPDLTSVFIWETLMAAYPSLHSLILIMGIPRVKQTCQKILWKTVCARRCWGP

[2] = biological target: T2, Taste receptor type 2 member 10 (Homo sapiens) (UniProt Q9NYW0); assay: Agonist activity at human TAS2R10 expressed in HEK293T cells co-expressing Galpha15 assessed as increase in intracellular calcium level at 20 mM by Calcium-3 dye based fluorescence assay relative to control
T2 sequence (whole entry): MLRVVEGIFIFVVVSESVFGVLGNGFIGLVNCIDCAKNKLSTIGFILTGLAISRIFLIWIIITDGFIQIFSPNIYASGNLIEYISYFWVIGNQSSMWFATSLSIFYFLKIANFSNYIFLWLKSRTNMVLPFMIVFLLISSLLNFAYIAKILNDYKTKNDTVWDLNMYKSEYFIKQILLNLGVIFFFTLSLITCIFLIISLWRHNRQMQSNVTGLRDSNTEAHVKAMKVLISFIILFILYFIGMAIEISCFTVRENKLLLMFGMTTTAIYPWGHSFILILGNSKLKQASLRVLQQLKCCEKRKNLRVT

[3] = biological target: T3, Taste receptor type 2 member 45 (Homo sapiens) (UniProt P59539); assay: Agonist activity at human TAS2R45 expressed in HEK293T cells co-expressing Galpha15 assessed as increase in intracellular calcium level at 20 mM by Calcium-3 dye based fluorescence assay relative to control
T3 sequence (whole entry): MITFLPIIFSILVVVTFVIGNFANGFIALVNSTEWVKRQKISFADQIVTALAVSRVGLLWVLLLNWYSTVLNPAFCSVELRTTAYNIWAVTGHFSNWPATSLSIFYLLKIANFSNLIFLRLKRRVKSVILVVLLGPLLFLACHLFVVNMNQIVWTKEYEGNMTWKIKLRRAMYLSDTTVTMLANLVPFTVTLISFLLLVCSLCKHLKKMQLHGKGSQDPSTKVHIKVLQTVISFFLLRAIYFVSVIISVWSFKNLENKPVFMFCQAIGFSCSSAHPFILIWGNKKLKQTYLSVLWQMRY

[4] = biological target: Taste receptor type 2 member 31 (Homo sapiens, UniProt P59538); assay: Agonist activity at human TAS2R44 expressed in HEK293T cells co-expressing Galpha15 assessed as increase in intracellular calcium level by Calcium-3 dye based fluorescence assay
[5] = biological target: Taste receptor type 2 member 60 (Homo sapiens, UniProt P59551); assay: Agonist activity at human TAS2R60 expressed in HEK293T cells co-expressing Galpha15 assessed as increase in intracellular calcium level by Calcium-3 dye based fluorescence assay
[6] = biological target: Taste receptor type 2 member 4 (Homo sapiens, UniProt Q9NYW5); assay: Agonist activity at human TAS2R4 expressed in HEK293T cells co-expressing Galpha15 assessed as increase in intracellular calcium level by Calcium-3 dye based fluorescence assay
[7] = biological target: Taste receptor type 2 member 9 (Homo sapiens, UniProt Q9NYW1); assay: Agonist activity at human TAS2R9 expressed in HEK293T cells co-expressing Galpha15 assessed as increase in intracellular calcium level by Calcium-3 dye based fluorescence assay
[8] = biological target: Taste receptor type 2 member 14 (Homo sapiens, UniProt Q9NYV8); assay: Agonist activity at human TAS2R14 expressed in HEK293T cells co-expressing Galpha15 assessed as increase in intracellular calcium level by Calcium-3 dye based fluorescence assay
[9] = biological target: Taste receptor type 2 member 13 (Homo sapiens, UniProt Q9NYV9); assay: Agonist activity at human TAS2R13 expressed in HEK293T cells co-expressing Galpha15 assessed as increase in intracellular calcium level by Calcium-3 dye based fluorescence assay
Sequence of Taste receptor type 2 member 13 (Q9NYV9 whole entry): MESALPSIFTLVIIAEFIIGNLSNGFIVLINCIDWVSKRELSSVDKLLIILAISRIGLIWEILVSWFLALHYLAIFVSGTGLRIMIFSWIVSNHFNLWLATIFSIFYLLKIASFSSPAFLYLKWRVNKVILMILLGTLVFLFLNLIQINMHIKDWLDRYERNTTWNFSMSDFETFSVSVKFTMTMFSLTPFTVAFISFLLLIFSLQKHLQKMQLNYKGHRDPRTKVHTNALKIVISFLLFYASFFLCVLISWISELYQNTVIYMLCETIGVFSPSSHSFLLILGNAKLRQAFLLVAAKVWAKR

Sequence of Taste receptor type 2 member 31 (P59538 whole entry): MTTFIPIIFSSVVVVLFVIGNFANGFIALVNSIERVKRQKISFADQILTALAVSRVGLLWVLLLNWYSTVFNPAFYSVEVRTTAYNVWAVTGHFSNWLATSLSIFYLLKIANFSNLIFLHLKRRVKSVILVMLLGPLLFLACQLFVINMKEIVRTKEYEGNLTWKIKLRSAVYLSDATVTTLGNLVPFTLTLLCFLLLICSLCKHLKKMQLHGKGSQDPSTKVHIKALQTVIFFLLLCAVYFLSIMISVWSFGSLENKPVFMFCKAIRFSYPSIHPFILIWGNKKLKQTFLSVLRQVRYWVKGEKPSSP
Sequence of Taste receptor type 2 member 60 (P59551 whole entry): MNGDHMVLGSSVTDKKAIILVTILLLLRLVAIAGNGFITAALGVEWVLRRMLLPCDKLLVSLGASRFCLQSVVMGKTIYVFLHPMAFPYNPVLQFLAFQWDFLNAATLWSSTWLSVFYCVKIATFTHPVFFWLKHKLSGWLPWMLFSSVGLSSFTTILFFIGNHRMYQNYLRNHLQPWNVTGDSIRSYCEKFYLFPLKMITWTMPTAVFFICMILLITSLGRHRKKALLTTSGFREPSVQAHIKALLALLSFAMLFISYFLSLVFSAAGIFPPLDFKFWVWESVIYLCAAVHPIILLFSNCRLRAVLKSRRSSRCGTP
Sequence of Taste receptor type 2 member 14 (Q9NYV8 whole entry): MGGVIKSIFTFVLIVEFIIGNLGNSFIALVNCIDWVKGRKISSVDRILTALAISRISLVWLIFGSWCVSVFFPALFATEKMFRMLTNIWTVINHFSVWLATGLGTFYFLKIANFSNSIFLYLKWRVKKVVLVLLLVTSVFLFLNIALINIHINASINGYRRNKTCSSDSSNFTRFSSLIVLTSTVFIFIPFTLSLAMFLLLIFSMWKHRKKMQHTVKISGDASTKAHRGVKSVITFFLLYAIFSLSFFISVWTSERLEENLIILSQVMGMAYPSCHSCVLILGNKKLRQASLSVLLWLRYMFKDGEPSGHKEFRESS
Sequence of Taste receptor type 2 member 9 (Q9NYW1 whole entry): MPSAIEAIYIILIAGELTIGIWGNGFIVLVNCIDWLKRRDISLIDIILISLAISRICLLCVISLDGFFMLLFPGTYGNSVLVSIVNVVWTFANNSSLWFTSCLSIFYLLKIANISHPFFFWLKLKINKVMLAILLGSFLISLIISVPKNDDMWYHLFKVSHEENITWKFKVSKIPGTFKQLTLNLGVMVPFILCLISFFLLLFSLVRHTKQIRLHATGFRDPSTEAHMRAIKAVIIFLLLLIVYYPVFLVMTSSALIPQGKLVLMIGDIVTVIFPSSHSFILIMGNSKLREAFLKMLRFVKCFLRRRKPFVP
Sequence of Taste receptor type 2 member 4 (Q9NYW5 whole entry): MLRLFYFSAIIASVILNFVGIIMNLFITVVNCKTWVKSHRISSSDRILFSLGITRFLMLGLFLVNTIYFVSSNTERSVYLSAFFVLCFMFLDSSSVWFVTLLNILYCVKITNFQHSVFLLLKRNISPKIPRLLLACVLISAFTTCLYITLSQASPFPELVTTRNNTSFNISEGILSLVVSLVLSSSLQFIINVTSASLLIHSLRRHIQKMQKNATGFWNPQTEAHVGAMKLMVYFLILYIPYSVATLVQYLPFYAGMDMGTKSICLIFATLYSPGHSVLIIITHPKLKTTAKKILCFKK

| Activity [1] | Activity [2] | Activity [3] | EC50 [4] | EC50 [5] | EC50 [6] | EC50 [7] | EC50 [8] | EC50 [9] | SMILES |
| --- | --- | --- | --- | --- | --- | --- | --- | --- | --- |
| < 40% | < 40% | < 40% |  |  |  |  |  |  | CC1=CC(=O)NS(=O)(=O)O1 |
| < 40% | < 40% | < 40% |  |  |  |  |  |  | CC(O)C(=O)[O-].[K+] (stereo not given) |
| < 40% | < 40% | < 40% | 5 to 15 mM | 5 to 15 mM | 5 to 15 mM | 5 to 15 mM | 5 to 15 mM | 5 to 15 mM | [Cl-].[K+] [POTASSIUM CHLORIDE] |

— ChEMBL document CHEMBL4419163, “Assays for identifying compounds that modulate bitter taste” (2014)
